Drawing on patent US20240261367A1, “CYCLIC PEPTIDE IMMUNOMODULATORS” (priority 2021, published 2024), this text covers IC50 for 8 compounds.

The assay addresses T1, PD-1/PD-L1 (Homo sapiens, UniProt Q9NZQ7).
T1 construct: TVMV protease site linker (C); made in house; host or cells: HEK293T cells
In words: PD-1/PD-L1 Homogenous Time-Resolved Fluorescence (HTRF) binding assay. Particulars: PD-L1-His (10 nM) pre-incubated with inhibitor 15 m, then PD-1-Ig (20 nM).

pIC50: −log10 of the molar value.

What is called pIC50 is the negative decadic logarithm of the IC50, by convention in mol/L.

T1 sequence (Q9NZQ7 18-239): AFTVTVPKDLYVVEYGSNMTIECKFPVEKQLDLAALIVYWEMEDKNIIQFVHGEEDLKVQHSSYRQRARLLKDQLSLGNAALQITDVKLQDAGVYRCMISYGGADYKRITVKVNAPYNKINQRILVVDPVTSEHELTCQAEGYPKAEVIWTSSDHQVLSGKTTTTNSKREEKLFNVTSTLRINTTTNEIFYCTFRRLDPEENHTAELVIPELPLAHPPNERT

Take `CCCC[C@H]1C(=O)N(C)[C@@H](CCCC)C(=O)N[C@@H](CC(C)C)C(=O)N[C@H](C(=O)NCC(=O)N[C@@H](Cc2cn(CCOCCOCCOCCOCCOCCOCCOCCOCCOCCOCCOCCNC(=O)CC[C@H](NC(=O)CCCCCCCCCCCCCCCCC(=O)O)C(=O)O)nn2)C(=O)O)CSCC(=O)N[C@@H](Cc2ccc(O)cc2)C(=O)N(C)[C@@H](C)C(=O)N[C@@H](CC(N)=O)C(=O)N2CCC[C@H]2C(=O)N[C@@H](CNC(=O)OC)C(=O)N[C@@H](CC(C)C)C(=O)N2C[C@H](O)C[C@H]2C(=O)N[C@@H](Cc2c[nH]c3ccccc23)C(=O)N[C@@H](CCNC(=O)OCc2oc(=O)oc2C)C(=O)N[C@@H](Cc2cn(CC(=O)O)c3ccccc23)C(=O)N1C` [Example 7005]: the negative-log IC50 (pIC50) was 7.92.

`CCCC[C@H]1C(=O)N(C)[C@@H](CCCC)C(=O)N[C@@H](CC(C)C)C(=O)N[C@H](C(=O)NCC(=O)N[C@@H](Cc2cn(CCOCCOCCOCCOCCOCCOCCOCCOCCOCCOCCOCCNC(=O)CC[C@H](NC(=O)CCCCCCCCCCCCCCCCC(=O)O)C(=O)O)nn2)C(=O)O)CSCC(=O)N[C@@H](Cc2ccc(O)cc2)C(=O)N(C)[C@@H](C)C(=O)N[C@@H](CC(N)=O)C(=O)N2CCC[C@H]2C(=O)N[C@@H](CNC(=O)OCc2oc(=O)oc2C)C(=O)N[C@@H](CC(C)C)C(=O)N2C[C@H](O)C[C@H]2C(=O)N[C@@H](Cc2c[nH]c3ccccc23)C(=O)N[C@@H](CCNC(=O)OC)C(=O)N[C@@H](Cc2cn(CC(=O)O)c3ccccc23)C(=O)N1C` [Example 7006] had a negative logarithm of the IC50 (pIC50) of 7.37.

In turn, `CCCC[C@H]1C(=O)N(C)[C@@H](CCCC)C(=O)N[C@@H](CC(C)C)C(=O)N[C@H](C(=O)NCC(=O)N[C@@H](Cc2cn(CCOCCOCCOCCOCCOCCOCCOCCOCCOCCOCCOCCNC(=O)CC[C@H](NC(=O)CCCCCCCCCCCCCCCCC(=O)O)C(=O)O)nn2)C(=O)O)CSCC(=O)N[C@@H](Cc2ccc(O)cc2)C(=O)N(C)[C@@H](C)C(=O)N[C@@H](CC(N)=O)C(=O)N2CCC[C@H]2C(=O)N[C@@H](CNC(=O)OCc2oc(=O)oc2C)C(=O)N[C@@H](CC(C)C)C(=O)N2C[C@H](O)C[C@H]2C(=O)N[C@@H](Cc2c[nH]c3ccccc23)C(=O)N[C@@H](CCNC(=O)OCC)C(=O)N[C@@H](Cc2cn(CC(=O)O)c3ccccc23)C(=O)N1C` [Example 7010] had a pIC50 of 7.34.

As for `CCCC[C@H]1C(=O)N(C)[C@@H](CCCC)C(=O)N[C@@H](CC(C)C)C(=O)N[C@H](C(=O)NCC(=O)N[C@@H](Cc2cn(CCOCCOCCOCCOCCOCCOCCOCCOCCOCCOCCOCCNC(=O)CC[C@H](NC(=O)CCCCCCCCCCCCCCCCC(=O)O)C(=O)O)nn2)C(=O)O)CSCC(=O)N[C@@H](Cc2ccc(O)cc2)C(=O)N(C)[C@@H](C)C(=O)N[C@@H](CC(N)=O)C(=O)N2CCC[C@H]2C(=O)N[C@@H](CNC(=O)OC)C(=O)N[C@@H](CC(C)C)C(=O)N2C[C@H](O)C[C@H]2C(=O)N[C@@H](Cc2c[nH]c3ccccc23)C(=O)N[C@@H](CCNC(=O)OCC)C(=O)N[C@@H](Cc2cn(CC(=O)O)c3ccccc23)C(=O)N1C` [Example 7012], the pIC50 was 8.10.

`CCCC[C@H]1C(=O)N(C)[C@@H](CCCC)C(=O)N[C@@H](CC(C)C)C(=O)N[C@H](C(=O)NCC(=O)N[C@@H](Cc2cn(CCOCCOCCOCCOCCOCCOCCOCCOCCOCCOCCOCCNC(=O)CC[C@H](NC(=O)CCCCCCCCCCCCCCCCC(=O)O)C(=O)O)nn2)C(=O)O)CSCC(=O)N[C@@H](Cc2ccc(O)cc2)C(=O)N(C)[C@@H](C)C(=O)N[C@@H](CC(N)=O)C(=O)N2CCC[C@H]2C(=O)N[C@@H](CNC(=O)OCC)C(=O)N[C@@H](CC(C)C)C(=O)N2C[C@H](O)C[C@H]2C(=O)N[C@@H](Cc2c[nH]c3ccccc23)C(=O)N[C@@H](CCNC(=O)OC)C(=O)N[C@@H](Cc2cn(CC(=O)O)c3ccccc23)C(=O)N1C` [Example 7013]: the pIC50 was 7.31.

For the compound `CCCC[C@H]1C(=O)N(C)[C@@H](CCCC)C(=O)N[C@@H](CC(C)C)C(=O)N[C@H](C(=O)NCC(=O)N[C@@H](Cc2cn(CCOCCOCCOCCOCCOCCOCCOCCOCCOCCOCCOCCNC(=O)CC[C@H](NC(=O)CCCCCCCCCCCCCCCCC(=O)O)C(=O)O)nn2)C(=O)O)CSCC(=O)N[C@@H](Cc2ccc(O)cc2)C(=O)N(C)[C@@H](C)C(=O)N[C@@H](CC(N)=O)C(=O)N2CCC[C@H]2C(=O)N[C@@H](CNC(=O)OCC)C(=O)N[C@@H](CC(C)C)C(=O)N2C[C@H](O)C[C@H]2C(=O)N[C@@H](Cc2c[nH]c3ccccc23)C(=O)N[C@@H](CCNC(=O)OCc2oc(=O)oc2C)C(=O)N[C@@H](Cc2cn(CC(=O)O)c3ccccc23)C(=O)N1C` [Example 7014], the pIC50 is 8.07.

In turn, `CCCC[C@H]1C(=O)N(C)[C@@H](CCCC)C(=O)N[C@@H](CC(C)C)C(=O)N[C@H](C(=O)NCC(=O)N[C@@H](Cc2cn(CCOCCOCCOCCOCCOCCOCCOCCOCCOCCOCCOCCNC(=O)CC[C@H](NC(=O)CCCCCCCCCCCCCCCCC(=O)OCc3oc(=O)oc3C)C(=O)O)nn2)C(=O)O)CSCC(=O)N[C@@H](Cc2ccc(O)cc2)C(=O)N(C)[C@@H](C)C(=O)N[C@@H](CC(N)=O)C(=O)N2CCC[C@H]2C(=O)N[C@@H](CNC(=O)OCC)C(=O)N[C@@H](CC(C)C)C(=O)N2C[C@H](O)C[C@H]2C(=O)N[C@@H](Cc2c[nH]c3ccccc23)C(=O)N[C@@H](CCN)C(=O)N[C@@H](Cc2cn(CC(=O)O)c3ccccc23)C(=O)N1C` [Example 7016] showed a pIC50 of 7.47.

`CCCC[C@H]1C(=O)N(C)[C@@H](CCCC)C(=O)N[C@@H](CC(C)C)C(=O)N[C@H](C(=O)NCC(=O)N[C@@H](Cc2cn(CCOCCOCCOCCOCCOCCOCCOCCOCCOCCOCCOCCNC(=O)CC[C@H](NC(=O)CCCCCCCCCCCCCCCCC(=O)O)C(=O)O)nn2)C(=O)O)CSCC(=O)N[C@@H](Cc2ccc(O)cc2)C(=O)N(C)[C@@H](C)C(=O)N[C@@H](CC(N)=O)C(=O)N2CCC[C@H]2C(=O)N[C@@H](CNCC(O)C(O)C(O)C(O)C(O)CO)C(=O)N[C@@H](CC(C)C)C(=O)N2C[C@H](O)C[C@H]2C(=O)N[C@@H](Cc2c[nH]c3ccccc23)C(=O)N[C@@H](CCN)C(=O)N[C@@H](Cc2cn(CC(=O)O)c3ccccc23)C(=O)N1C` (some centres unmarked) [Example 8001] showed a pIC50 of 7.92.
